Values quoted from earlier work in patent US8617624B2, “Compositions, systems and methods for the diagnosis, prevention and treatment of disorders associated with azetidine-2-carboxylic acid” (priority 2006, dated 2013).

Assays:
[1] = tested on: pregnant mice; settings: fed to pregnant mice
[2] = tested on: pigs
[3] = tested on: hamsters; settings: exposure during pregnancy in hamsters

| Compound | teratogenic effect [1] | effect on wound healing [2] | teratogenic effect [3] | increase in plasma proline concentration (1 mmol proline/kg lean body mass) | plasma proline increase when glucose also ingested (1 mmol proline/kg lean body mass with about 25 g of glucose) | absorption of proline (ingestion) |
| --- | --- | --- | --- | --- | --- | --- |
| O=C(O)C1CCN1 (stereo not drawn) [Aze, Azetidine-2-carboxylic acid] | predisposes to cleft palate | delayed wound healing | fetal weight abnormalities, tissue hemorrhages, cleft palate, retarded ossifications, and shortened bones |  |  |  |
| O=C(O)[C@@H]1CCCN1 [proline] |  |  |  | approximately 13 fold | decreased by half | readily absorbed |
